According to ChEMBL document CHEMBL4007390, “Design, synthesis and biological evaluation of indolin-2-one-based derivatives as potent, selective and efficacious inhibitors of FMS-like tyrosine kinase3 (FLT3)” (Eur J Med Chem, 2017):
The source made the active and inactive calls. The rule behind the calls is not given here.

Test system: MV4-11
Assay: Antitumor activity against human MV4-11 cells xenografted in Harlan nude mouse assessed as tumor growth inhibition administered ig qd for 20 days
Format: functional
Conditions: MV4-11, po, 480 h, read-out: MED

**Q.** With CCN(CC)CCNC(=O)c1c(C)[nH]c(/C=C2\C(=O)Nc3ccc(F)cc32)c1C [SUNITINIB] as the compound, how does the minimal effective dose read?
**A.** Its minimal effective dose is 10 mg/kg/day.

Test system: MV4-11
Assay: Antitumor activity against human MV4-11 cells xenografted in Harlan nude mouse assessed as tumor growth inhibition at 10 mg/kg, ig qd for 20 days relative to control
Format: functional
Conditions: MV4-11, po, 480 h, read-out: TGI

**Q.** With CCN(CC)CCNC(=O)c1c(C)[nH]c(/C=C2\C(=O)Nc3ccc(F)cc32)c1C [SUNITINIB] as the compound, how does the inhibition in vivo at 10 mg/kg read?
**A.** Its inhibition in vivo at 10 mg/kg is 81%.

Test system: MV4-11
Assay: Antiproliferative activity against human MV4-11 cells harboring FLT3 ITD mutant after 72 hrs by MTS assay
Format: functional, cell-based
Conditions: MV4-11, 72 h

**Q.** For Cc1[nH]c(/C=C2\C(=O)Nc3ccc(F)cc32)c(C)c1NC(=O)CN1CCOCC1, which IC50 is on record?
**A.** The IC50 was 66.1 nM.

**Q.** For Cc1[nH]c(/C=C2\C(=O)Nc3ccc(F)cc32)c(C)c1NC(=O)CN1CCCCC1, which IC50 is on record?
**A.** The IC50 was greater than 200 nM.

**Q.** Which IC50 does the source give for Cc1[nH]c(/C=C2\C(=O)Nc3ccc(F)cc32)c(C)c1NC(=O)[C@@H]1CCCN1 here?
**A.** The IC50 was 41.4 nM.

**Q.** For Cc1[nH]c(/C=C2\C(=O)Nc3ccc(F)cc32)c(C)c1NC(=O)CCN1CCCCC1, which IC50 is on record?
**A.** The IC50 was 33.7 nM.

**Q.** With Cc1[nH]c(/C=C2\C(=O)Nc3ccc(F)cc32)c(C)c1NC(=O)CN1CCN(C)CC1 as the compound, how does the IC50 read?
**A.** The IC50 was 38.5 nM.

**Q.** Which IC50 does the source give for CCCNCCC(=O)Nc1c(C)[nH]c(/C=C2\C(=O)Nc3ccc(F)cc32)c1C here?
**A.** Its IC50 is 39.4 nM.

**Q.** Which IC50 does the source give for Cc1[nH]c(/C=C2\C(=O)Nc3ccc(F)cc32)c(C)c1NC(=O)CNC1CCCC1 here?
**A.** The IC50 was 89.9 nM.

**Q.** For Cc1[nH]c(/C=C2\C(=O)Nc3ccc(F)cc32)c(C)c1NC(=O)CCN(C)C, which IC50 is on record?
**A.** Its IC50 is 27.1 nM.

**Q.** With CCN(CC)CCNC(=O)c1c(C)[nH]c(/C=C2\C(=O)Nc3ccc(F)cc32)c1C [SUNITINIB] as the compound, how does the IC50 read?
**A.** Its IC50 is 38.5 nM.

**Q.** With CCNCCC(=O)Nc1c(C)[nH]c(/C=C2\C(=O)Nc3ccc(F)cc32)c1C as the compound, how does the IC50 read?
**A.** The IC50 was 25.7 nM.

**Q.** For Cc1[nH]c(/C=C2\C(=O)Nc3ccc(F)cc32)c(C)c1NC(=O)CCNC1CCCC1, which IC50 is on record?
**A.** The IC50 was 55 nM.

**Q.** For Cc1[nH]c(/C=C2\C(=O)Nc3ccc(F)cc32)c(C)c1NC(=O)CNC1CCCCC1, which IC50 is on record?
**A.** Its IC50 is greater than 200 nM.

**Q.** For CCNCC(=O)Nc1c(C)[nH]c(/C=C2\C(=O)Nc3ccc(F)cc32)c1C, which IC50 is on record?
**A.** Its IC50 is 43.8 nM.

**Q.** For CCCN(CCC)CCC(=O)Nc1c(C)[nH]c(/C=C2\C(=O)Nc3ccc(F)cc32)c1C, which IC50 is on record?
**A.** Its IC50 is 142 nM.

**Q.** Which IC50 does the source give for CCN(CC)CC(=O)Nc1c(C)[nH]c(/C=C2\C(=O)Nc3ccc(F)cc32)c1C here?
**A.** The IC50 was greater than 200 nM.

**Q.** For CCCNCC(=O)Nc1c(C)[nH]c(/C=C2\C(=O)Nc3ccc(F)cc32)c1C, which IC50 is on record?
**A.** The IC50 was 67.8 nM.

**Q.** Which IC50 does the source give for CCN(CC)CCC(=O)Nc1c(C)[nH]c(/C=C2\C(=O)Nc3ccc(F)cc32)c1C here?
**A.** Its IC50 is 36.5 nM.

**Q.** Which IC50 does the source give for Cc1[nH]c(/C=C2\C(=O)Nc3ccc(F)cc32)c(C)c1NC(=O)CN1CCCC1 here?
**A.** Its IC50 is 74.4 nM.

**Q.** With Cc1[nH]c(/C=C2\C(=O)Nc3ccc(F)cc32)c(C)c1NC(=O)CCN1CCN(C)CC1 as the compound, how does the IC50 read?
**A.** Its IC50 is 45.3 nM.

**Q.** With Cc1[nH]c(/C=C2\C(=O)Nc3ccc(F)cc32)c(C)c1NC(=O)C1CCNCC1 as the compound, how does the IC50 read?
**A.** Its IC50 is 14.7 nM.

**Q.** For CCCCNCCC(=O)Nc1c(C)[nH]c(/C=C2\C(=O)Nc3ccc(F)cc32)c1C, which IC50 is on record?
**A.** Its IC50 is 73.4 nM.

**Q.** With Cc1[nH]c(/C=C2\C(=O)Nc3ccc(F)cc32)c(C)c1NC(=O)CCN1CCOCC1 as the compound, how does the IC50 read?
**A.** The IC50 was 60.7 nM.

**Q.** With Cc1[nH]c(/C=C2\C(=O)Nc3ccc(F)cc32)c(C)c1NC(=O)CNC(C)(C)C as the compound, how does the IC50 read?
**A.** Its IC50 is 158 nM.

**Q.** For Cc1[nH]c(/C=C2\C(=O)Nc3ccc(F)cc32)c(C)c1NC(=O)C1CCCNC1 (stereo not drawn), which IC50 is on record?
**A.** Its IC50 is 24.1 nM.

**Q.** Which IC50 does the source give for Cc1[nH]c(/C=C2\C(=O)Nc3ccc(F)cc32)c(C)c1NC(=O)CN(C)C here?
**A.** The IC50 was 47.5 nM.

**Q.** Which IC50 does the source give for Cc1[nH]c(/C=C2\C(=O)Nc3ccc(F)cc32)c(C)c1NC(=O)CCN1CCCC1 here?
**A.** The IC50 was 20 nM.

**Q.** For CCCN(CCC)CC(=O)Nc1c(C)[nH]c(/C=C2\C(=O)Nc3ccc(F)cc32)c1C, which IC50 is on record?
**A.** The IC50 was greater than 200 nM.

**Q.** Which IC50 does the source give for Cc1[nH]c(/C=C2\C(=O)Nc3ccc(F)cc32)c(C)c1NC(=O)CCN1CCNCC1 here?
**A.** Its IC50 is 39.2 nM.

**Q.** For Cc1[nH]c(/C=C2\C(=O)Nc3ccc(F)cc32)c(C)c1NC(=O)C1CCCCN1 (stereo not drawn), which IC50 is on record?
**A.** Its IC50 is 35.6 nM.

**Q.** With Cc1[nH]c(/C=C2\C(=O)Nc3ccc(F)cc32)c(C)c1NC(=O)CN1CCNCC1 as the compound, how does the IC50 read?
**A.** Its IC50 is 17.1 nM.

**Q.** For CCCCNCC(=O)Nc1c(C)[nH]c(/C=C2\C(=O)Nc3ccc(F)cc32)c1C, which IC50 is on record?
**A.** The IC50 was greater than 200 nM.

**Q.** With Cc1[nH]c(/C=C2\C(=O)Nc3ccc(F)cc32)c(C)c1NC(=O)CCNC(C)(C)C as the compound, how does the IC50 read?
**A.** The IC50 was 30.3 nM.

**Q.** With Cc1[nH]c(/C=C2\C(=O)Nc3ccc(F)cc32)c(C)c1NC(=O)CCNC1CCCCC1 as the compound, how does the IC50 read?
**A.** The IC50 was 119 nM.

Test system: not listed separately
Assay: Inhibition of human FLT3 ITD mutant
Conditions: not given

**Q.** For CCN(CC)CCNC(=O)c1c(C)[nH]c(/C=C2\C(=O)Nc3ccc(F)cc32)c1C [SUNITINIB], which IC50 is on record?
**A.** Its IC50 is 1.4 nM.

Test system: not listed separately
Assay: Toxicity in Harlan nude mouse xenografted with human MV4-11 cells administered ig qd for 20 days
Conditions: in vivo, po

**Q.** Which MTD at 480 h does the source give for CCN(CC)CCNC(=O)c1c(C)[nH]c(/C=C2\C(=O)Nc3ccc(F)cc32)c1C [SUNITINIB] here?
**A.** The MTD at 480 h was 80 mg/kg/day.

Test system: MV4-11
Assay: Antitumor activity against human MV4-11 cells xenografted in Harlan nude mouse assessed as tumor growth inhibition administered orally measured after 1 week
Format: functional, cell-based
Conditions: not given

**Q.** Which TGI does the source give for Cc1[nH]c(/C=C2\C(=O)Nc3ccc(F)cc32)c(C)c1NC(=O)C1CCNCC1 here?
**A.** The TGI was “inactive”.
